Results as given in patent publication US20170035824A1, “USAGE OF OBLONGIFOLIN C, A NATURAL COMPOUND FROM GARCINIA YUNNANENSIS HU, ON TREATING CANCER AS METASTASIS INHIBITOR AND AUTOPHAGIC FLUX INHIBITOR” (Hong Kong Baptist University, priority 2013, published 2017).
Structures can show the parent of a compound that is named as a salt.

Legend:
HeLa cells xenograft = test: Anti-cancer activity in vivo, cervical cancer xenograft; set-up: species or system BALB/c nude mice; settings: for tumor size versus vehicle treated mice: HeLa xenograft, intratumoral once every 2 days, seven injections, OC 12 μg, Etopside 4 μg
Procedure: Four weeks old nude mice were engrafted with HeLa cells and observed until tumors reached ˜100 mm^3. Tumor-bearing mice were then treated vehicle, OC (12 μg) or Etopside (4 μg) […] by intratumoral once every 2 days for a total of seven injections. Mice were killed and tumors resected and weighed 2 days after the final injection.
Four-week-old BALB/c nude mice were purchased from the Experimental Animal
Center of Chinese Academy of Science (Shanghai, China) and kept in pathogen free environment at Experimental Animal Center in Shanghai University of Traditional Chinese Medicine. The mice have an average weight of 20 g. Approximately 2×10^6 HeLa cells were injected into the left and right sides of the animals. Two weeks later, 15 mice bearing tumors around 100 mm^3 in volume were randomly divided into vehicle control, etoposide (positive control) and oblongifolin C-treated groups. The mice were administered via intratumoral injection at the dose of 4 μg etopside or 12 μg OC in 200 μl solvent (0.05% DMSO, 0.05% Tween-80 in PBS) once every two days for two weeks. The tumor size was measured over a period of two weeks.

[1] = literature background; cited from earlier work
[2] = tested on: HeLa cells stably expressing GFP-LC3; test: Live cell imaging and colocalization analysis (GFP-LC3 / LysoTracker Red); type: cell-based; settings: OC 15 μM or HCQ 50 μM, 8 hours, FIG. 11
Procedure: Live cell images of GFP-LC3 and LysoTracker Red were taken using Olympus confocal microscope. The enlarged images show the colocalization of two signals.
(§1) For lysotracker staining, HeLa or MEF cells grown on coverslips were stained with 50 nM Lysotracker Red DND-99 (Molecular Probes, Invitrogen, L7528) in pre-warmed medium for 20 min at 37° C. All of the samples were examined under an Olympus FV1000 confocal microscope (Olympus) equipped with a 63×oil immersion objective. The confocal images were acquired using FV10-ASW 2.0 software. Calculation of Pearson's correlation coefficient (PCC) was applied to quantify colocalization. PCC was calculated by FV10-ASW 2.0 software between the stack of images from two channels.

[3] = tested on: human colorectal cancer cell lines; settings: previous studies (Feng et al. 2012; Huang et al. 2009); cited from earlier work
HeLa cells [4] = test: Western blot for endogenous LC3 / SQSTM1; type: cell-based
Procedure: (§2) GAPDH was used as a loading control. An image J densitometric analysis of the LC3-II/GAPDH ratio from LC3 immunoblots was shown.
(§3) Samples were analyzed by western blotting for endogenous SQSTM1 and GAPDH. An image J densitometric analysis of the SQSTM1/GAPDH ratio from immunoblots was shown.
(§4) Cells were lysed in ice-cold whole cell extract buffer (50 mM pH8.0 Tris-HCl, 4M urea and 1% TritonX-100), supplemented with complete protease inhibitor mixture (Roche Diagnostics, 04693132001). Cell extracts were resolved by SDS-PAGE gel electrophoresis and transferred to a nitrocellulose membrane. After blocking with 5% non-fat milk in Tris-buffered saline containing 0.2% Tween-20, the membranes were probed with the following antibodies: LC3B (sigma, L7543), SQSTM1/p62 (MBL, PM045), GAPDH (Proteintech, 10494-1-AP), CASP3 (Cell signaling, #9962). Following incubation with horseradish peroxidase coupled secondary anti-mouse (KPL, 074-1806) or anti-rabbit antibodies (KPL, 474-1506), protein bands were visualized using ECL Blotting Detection Reagents (KPL, 54-61-00).

ECA109 cells [5] = test: Anti-invasion assay (Matrigel assay); type: cell-based, human; settings: ECA109, 72 hr, FIG. 4
Procedure: (§5) Human esophageal cancer cell line ECA109 were maintained in RPMI1640 (Gibco/Invitrogen) supplemented with 10% fetal bovine serum (Invitrogen), 100 U/ml penicillin-streptomycin (Gibco/ Invitrogen, 15140-122), within a humidified atmosphere containing 5% CO2 at 37° C.
(§6) Cell invasion was determined using Matrigel (BD) coated transwell (Corning) with pore size of 8 μm. 5×10^4 cells that were seeded in serum-free medium in the upper chamber, while medium containing 10% FBS in the lower chamber. After incubating for 72 hr at 37° C., cells in the upper chamber were carefully removed with a cotton swab and the cells that had traversed to reverse face of the membrane were fixed in methanol, stained with Giemsa, and counted.

HeLa-LC3-GFP cells = test: GFP-LC3 translocation and quantitative analyses; type: cell-based; settings: OC 5, 10 and 20 μM, 24 hours, FIG. 5 and 6
Excerpt: MEF, HeLa, CNE, HCT116, MCF7 and HepG2 cells were transfected with pEGFP-LC3 plasmid using lipofectamine 2000 (Invitrogen, 11668-019). […] Image acquisition was done using an Olympus FV1000 confocal microscope. The number of GFP-LC3 dots was counted from at least 150 cells from randomly placed positions within each sample.

CNE cells = test: Flow cytometry (propidium iodide), complete vs nutrient-deprived medium; type: cell-based, human; settings: OC 5 μM, EBSS vs DMEM, 24 hours, FIG. 13
Procedure: (§7) The cells were fixed and stained with propidium iodide (PI).
(§8) HeLa, HCT116, CNE, MCF7, MDA-MB-231, HepG2 and MEFs were maintained in Dulbecco's modified Eagle's medium (Gibco/Invitrogen, 12800-017) supplemented with 10% fetal bovine serum 100U/m1 penicillin-streptomycin (Gibco/ Invitrogen, 15140-122) at 37° C. in a humidified 5% CO2 incubator. For nutrient starvation, HeLa or CNE cells cultured in DMEM were washed three times with PBS, then cultured in Earle's Balanced Salt Solution (EBSS, Sigma, E6132) for indicated time point.
(§9) Cells were treated with Oblongifolin C then cultured in complete (DMEM with serum) or nutrient deprived medium (EBSS) for 24 hours. The cells were fixed in 70% ethanol in PBS overnight. For cell cycle distribution, cells were counterstained with propidium iodide and analyzed for DNA content by use of a BD Influx™ flow cytometer.

ECA109 cells [6] = test: Wound healing assay; type: cell-based, human; settings: ECA109, 24 hours, FIG. 2
Procedure: as §5
ECA109 cells were seeded on 12-well plates at a density of 1×10^5 cells/well. After the cells reached sub-confluence, the mono-layer cells were wounded by scraping off the cells and then grown in medium for 24 hours. The migrated distance of cells was monitored and imaged under a microscope.

MEF cells = test: Western blot for endogenous LC3 / SQSTM1; type: cell-based, mouse
Procedure: as §2, §3, §4

HeLa cells [7] = test: Flow cytometry (propidium iodide), complete vs nutrient-deprived medium; type: cell-based; settings: OC 5 μM, EBSS vs DMEM, 24 hours, FIG. 13
Procedure: as §7, §8, §9

HeLa cells [8] = test: Western blot for cleaved Caspase 3 in DMEM or EBSS medium; type: cell-based; settings: DMEM and EBSS, 24 hours, FIG. 14
Procedure: Samples were analyzed by western blotting for cleaved Caspase 3, LC3 and SQSTM1. GAPDH was used as a loading control.
as §4, §9

ECA109 cells [9] = test: Transwell assay (cell migration); type: cell-based, human; settings: ECA109, 24 hours, FIG. 3
Procedure: as §5
as §6, with “migration” for “invasion”, “was also” for “was”, “a” for “Matrigel (BD) coated”, “24 hours” for “72 hr”

[10] = tested on: lysosomal proteolytic activity; test: Lysosomal proteolytic activity / autophagic flux; type: cell-based
[11] = tested on: human hepatocytes (HepG2); test: GFP-LC3 translocation; type: cell-based; settings: HepG2, 10 μM, 24 hours, FIG. 7
Procedure: (§10) MEF, HeLa, CNE, HCT116, MCF7 and HepG2 cells were transfected with pEGFP-LC3 plasmid using lipofectamine 2000 (Invitrogen, 11668-019). One day after transfection, cells were treated with 10 μM Oblongifolin C for 24 hours prior to fixation. Image acquisition was done using an Olympus FV1000 confocal microscope. The number of GFP-LC3 dots was counted from at least 150 cells from randomly placed positions within each sample.

[12] = tested on: human nasopharyngeal cancer cells (CNE); test: GFP-LC3 translocation; type: cell-based; settings: 10 μM, 24 hours, FIG. 7
Procedure: as §10

[13] = tested on: mouse embryonic fibroblast cells (MEF); test: GFP-LC3 translocation; type: cell-based; settings: 10 μM, 24 hours, FIG. 7
Procedure: as §10

[14] = tested on: human colon cancer cells (HCT116); test: GFP-LC3 translocation; type: cell-based; settings: HCT116, 10 μM, 24 hours, FIG. 7
Procedure: as §10

[15] = tested on: human breast cancer cells (MCF7); test: GFP-LC3 translocation; type: cell-based; settings: MCF7, 10 μM, 24 hours, FIG. 7
Procedure: as §10

MEF = test: Live cell imaging and colocalization analysis (GFP-LC3 / LysoTracker Red); type: cell-based, mouse; settings: OC 15 μM, 8 hours, FIG. 12
Procedure: The colocalization of GFP-LC3 and LysoTracker Red were analyzed by confocal microscopy. The enlarged images show the colocalization of two signals.
as §1

## COc1cc([C@@H]2c3cc4c(cc3[C@@H](O[C@@H]3O[C@@H]5CO[C@@H](C)O[C@H]5[C@H](O)[C@H]3O)[C@H]3COC(=O)[C@H]23)OCO4)cc(OC)c1O [Etop, etoposide, reference compound]
HeLa cells xenograft
  tumor size versus vehicle treated mice: smaller than those of vehicle treated mice

## CC(C)=CCC[C@]1(C)C=Cc2c(O)c3c(c(CC=C(C)C)c2O1)O[C@]12C(=C[C@@H]4C[C@H]1C(C)(C)O[C@@]2(C/C=C(/C)C(=O)O)C4=O)C3=O [GA, gambogic acid]
[1]
  toxicity: induces toxicity to the liver and kidney

## CCN(CCO)CCCC(C)Nc1ccnc2cc(Cl)ccc12 (centres unmarked) [HCQ, hydroxychloroquine sulfate, reference compound]
[2]
  autophagosome-lysosome fusion (colocalization of GFP-LC3 and LysoTracker Red): block autophagosome-lysosome fusion

## CC(C)=CCC/C(C)=C/C[C@@H]1C[C@]2(CC=C(C)C)C(=O)[C@@](CC=C(C)C)(C(=O)C(C(=O)c3ccc(O)c(O)c3)=C2O)[C@@]1(C)CCC=C(C)C [Oblongifolin C]
[3]
  relative potency among PPAP compounds: most potent PPAP compound
HeLa cells [4]; OC 15 μM over a time period, FIG. 10
  amount of LC3-II protein (FIG. 10; autophagic flux): increase the amount of LC3-II protein in a time-dependent manner
HeLa cells [4]; OC 15 μM, 0, 4, 8, 12 and 24 hours, FIG. 9
  amount of LC3-II protein (time dependence): increase the amount of LC3-II protein in a time-dependent manner
HeLa cells [4]; OC 2, 5, 10 and 25 μM, 24 hours, FIG. 8
  amount of LC3-II protein (dose dependence): increase the amount of LC3-II protein in a dose-dependent manner
ECA109 cells [5]
  cell invasion through matrigel: suppress ECA109 cells invasion through matrigel at a concentration dependent manner
HeLa-LC3-GFP cells
  GFP-LC3 puncta formation: could regulate GFP-LC3 puncta formation at concentration dependent manner
[2]
  autophagosome-lysosome fusion (colocalization of GFP-LC3 and LysoTracker Red): block autophagosome-lysosome fusion
CNE cells
  apoptosis of nutrient-deprived cancer cells: sensitizes nutrient-deprived cancer cells to apoptosis
ECA109 cells [6]
  wound healing (migrated distance of cells): suppressed the wound healing in a concentration dependent manner
MEF cells; MEF, OC 15 μM, 0, 4, 8, 12 and 24 hours, FIG. 9
  amount of LC3-II protein (time dependence): increase the amount of LC3-II protein in a time-dependent manner
MEF cells; MEF, OC 2, 5, 10 and 25 μM, 24 hours, FIG. 8
  amount of LC3-II protein (dose dependence): increase the amount of LC3-II protein in a dose-dependent manner
MEF cells; MEFs, OC 15 μM over a time period, FIG. 10
  amount of LC3-II protein (FIG. 10; autophagic flux): increase the amount of LC3-II protein in a time-dependent manner
HeLa cells [7]
  apoptosis of nutrient-deprived cancer cells: sensitizes nutrient-deprived cancer cells to apoptosis
HeLa cells [8]
  Caspase 3 cleavage: resulted in Caspase 3 and cleavage in concentration-dependent manner
HeLa cells xenograft; 12 μg OC intratumoral once every two days for two weeks, FIG. 15
  anticancer effect in cervical cancer xenograft: anticancer effect similar to etopside
HeLa cells xenograft
  tumor size versus vehicle treated mice: smaller than those of vehicle treated mice
HeLa cells xenograft; based on 12 μg given to 20 g mouse
  effective dosage for mouse: 0.6 mg/kg
HeLa cells xenograft; cervical cancer xenograft mouse model
  tumor markers in cervical cancer xenograft mouse model (Caspase 3, LC3, SQSTM1, lysosomal cathepsins): increased Casepse 3 cleavage, LC3 and SQSTM1 accumulation, and reduced expression of lysosomal cathepsins
ECA109 cells [9]
  cell migration through transwell: suppress ECA109 cells migration through transwell at concentration dependent manner
[10]
  autophagic flux and lysosomal proteolytic activity: blocks both autophagic flux and lysosomal proteolytic activity
[11]
  GFP-LC3 puncta formation: could regulate GFP-LC3 puncta formation
[12]
  GFP-LC3 puncta formation: could regulate GFP-LC3 puncta formation
[13]
  GFP-LC3 puncta formation: could regulate GFP-LC3 puncta formation
[14]
  GFP-LC3 puncta formation: could regulate GFP-LC3 puncta formation
[15]
  GFP-LC3 puncta formation: could regulate GFP-LC3 puncta formation
MEF
  autophagosome-lysosome fusion (colocalization of GFP-LC3 and LysoTracker Red): block autophagosome-lysosome fusion
